Several values for one entry are separate records, joined by “and”; a condition that tells them apart may be missing. Equal entries are not always repeated. Where two headings read alike, the source gives them in different places.
How the values were obtained:
[1] = tested on: humoral or cellular immunity; details: Presti et al. 1989; cited from earlier work
[2] = tested on: normal human peripheral blood mononuclear cells (PBMC); assay: cells; type: cell-based; details: for inhibition at 5 µM / inhibition at 10 µM / inhibition at 2.5 µM: Homo sapiens, PBMC

For GM1 ganglioside, the “suppressive effect on humoral or cellular immunity in vivo” value [1] is listed as “no evidence of a suppressive effect”.

For CCCCCCCCCCCCC/C=C/[C@@H](O)[C@H](CO[C@@H]1O[C@H](CO)[C@@H](O[C@@H]2O[C@H](CO)[C@H](O[C@@H]3O[C@H](CO)[C@H](O)[C@H](O)[C@H]3NC(C)=O)[C@H](O[C@]3(C(=O)O)C[C@H](O)[C@@H](NC(C)=O)[C@H]([C@H](O)[C@H](O)CO)O3)[C@H]2O)[C@H](O)[C@H]1O)NC(=O)C(O)CCCCCCCCCCCCCCCC (stereo partly drawn) [d18:1-hC18:0 GM2], the “cpm (3H-thymidine uptake)” value [2] was 16.7 cpm × 10^-3 and 11.4 cpm × 10^-3 and 12.9 cpm × 10^-3, the “immunosuppressive activity (in words)” value [2] was “less immunosuppressive than the non-hydroxylated species” and the inhibition at 5 µM [2] was 30%. The inhibition at 10 µM [2] was 21% and the inhibition at 2.5 µM ([2]; read-out: % inhibition (NI)) was less than 0%.

Work on CCCCCCCCCCCCC/C=C/[C@@H](O)[C@H](CO[C@@H]1O[C@H](CO)[C@@H](O[C@@H]2O[C@H](CO)[C@H](O[C@@H]3O[C@H](CO)[C@H](O)[C@H](O)[C@H]3NC(C)=O)[C@H](O[C@]3(C(=O)O)C[C@H](O)[C@@H](NC(C)=O)[C@H]([C@H](O)[C@H](O)CO)O3)[C@H]2O)[C@H](O)[C@H]1O)NC(=O)CCCCCCCCCCCCCCCCC [d18:1-C18:0 GM2] yielded an inhibition at 5 µM [2] of 47%, an inhibition at 10 µM [2] of 86% and an inhibition at 2.5 µM ([2]; read-out: % inhibition) of 31%.

From US5366963A, “Gangliosides with immunosuppressive ceramide moieties” (The Regents of the University of California, priority 1993, dated 1994)
